Data from publication doi:10.1101/2025.10.26.684696v1 (bioRxiv, 2025).
Residues, ends and D or L forms follow the SMILES beside them.

Legend:
[1] = reference compound; cited from earlier work
[2] = reference compound; cited from earlier work; remark: listed apart in the source
[3] = Stability in simulated gastric fluid; type: in vitro ADME; conditions: pH 1.6
[4] = Stability in simulated intestinal fluid; type: in vitro ADME; conditions: pH 6.5
[5] = Stability in human plasma; type: in vitro ADME
[6] = LogD7.4 by miniaturized shake-flask procedure; type: physicochemical; conditions: miniaturized shake-flask procedure at pH 7.4
Caco-2 cell permeability = type: in vitro ADME
[7] = Stability in rat liver microsomes; type: in vitro ADME

SMILES: CC[C@H]1OC(=O)[C@H](C)[C@@H](O[C@H]2C[C@@](C)(OC)[C@@H](O)[C@H](C)O2)[C@H](C)[C@@H](O[C@@H]2O[C@H](C)C[C@H](N(C)C)[C@H]2O)[C@](C)(O)C[C@@H](C)C(=O)[C@H](C)[C@@H](O)[C@]1(C)O [erythromycin]
- Stability in intestinal simulated fluids (t1/2) [1]: 7.55 h

SMILES: CC(C)[N+](C)(CCOC(=O)C1c2ccccc2Oc2ccccc21)C(C)C [propantheline]
- Human plasma stability (t1/2) [2]: 2.6 min

SMILES: N=C(N)NCCC[C@@H]1NC(=O)CNC(=O)CNC(=O)[C@H](Cc2c[nH]cn2)NC(=O)CNC(=O)CNC(=O)[C@H](Cc2c[nH]c3ccccc23)NC(=O)[C@H](Cc2c[nH]c3ccccc23)NC(=O)CNC(=O)[C@H](CCCCN)NC(=O)CNC(=O)[C@H](CO)NC(=O)CNC(=O)CNC(=O)[C@H](Cc2c[nH]c3ccccc23)NC1=O [SP4] (cyclo(GGHGGRWGGSGKGWW))
- half-life [3]: 1.8 h
- half-life [4]: 7.6 h
- remaining at 1 h [5]: 89.4%
- LogD7.4 [6]: 0.86
- Papp A→B (Caco-2 cell permeability): 1.78 ×10⁻⁶ cm/s
- Papp B→A (Caco-2 cell permeability): 2.15 ×10⁻⁶ cm/s
- efflux ratio (Caco-2 cell permeability): ~1.2
- half-life [7]: 4.7 h
